The target in this test is T1, recombinant human pancreatic GLK (Homo sapiens, UniProt P35557).
T1 sequence (P35557 1-465): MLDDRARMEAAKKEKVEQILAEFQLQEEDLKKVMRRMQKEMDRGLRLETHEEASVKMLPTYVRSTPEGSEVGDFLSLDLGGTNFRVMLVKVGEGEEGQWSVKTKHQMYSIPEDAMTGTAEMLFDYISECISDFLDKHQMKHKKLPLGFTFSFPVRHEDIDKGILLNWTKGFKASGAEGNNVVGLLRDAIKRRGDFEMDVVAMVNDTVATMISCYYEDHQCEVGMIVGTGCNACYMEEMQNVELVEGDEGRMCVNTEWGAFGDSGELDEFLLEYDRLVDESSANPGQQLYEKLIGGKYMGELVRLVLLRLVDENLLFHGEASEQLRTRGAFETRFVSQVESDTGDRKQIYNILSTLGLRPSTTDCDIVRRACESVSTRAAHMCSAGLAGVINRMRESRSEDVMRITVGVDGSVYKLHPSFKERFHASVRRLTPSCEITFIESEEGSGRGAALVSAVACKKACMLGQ
In words: biochemical.
As for `O=C(Nc1ccc(F)cn1)[C@H](CCO)Oc1ncnc2c1cnn2-c1ncccc1Cl` [Example 143d, (2S)-2-[1-(3-chloro-2-pyridyl)pyrazolo[4,5-e]pyrimidin-4-yl]oxy-N-(5-fluoro-2-pyridyl)-4-hydroxy-butanamide], the concentration for a half-maximal effect (EC50) (commonly the midpoint of the concentration-response curve) was determined as 590 nM.

Consider `N#Cc1ccc(NC(=O)[C@H](CCO)Oc2ncnc3c2cnn3-c2ncccc2Cl)nc1` [Example 143e, (2S)-2-[1-(3-chloro-2-pyridyl)pyrazolo[4,5-e]pyrimidin-4-yl]oxy-N-(5-cyano-2-pyridyl)-4-hydroxy-butanamide], for which the EC50 amounted to 530 nM.

`O=C(Nc1ccncn1)[C@H](CCO)Oc1ncnc2c1cnn2-c1ncccc1Cl` [Example 143f, (2S)-2-[1-(3-chloro-2-pyridyl)pyrazolo[4,5-e]pyrimidin-4-yl]oxy-4-hydroxy-N-pyrimidin-4-yl-butanamide]: the EC50 came to 980 nM.

Regarding `Cc1ccc(NC(=O)[C@H](COC2CCC2)Oc2ncnc3c2cnn3-c2nccnc2C)nc1` [Example 144, (2S)-3-(cyclobutoxy)-2-[1-(3-methylpyrazin-2-yl)pyrazolo[4,5-e]pyrimidin-4-yl]oxy-N-(5-methyl-2-pyridyl)propanamide], the EC50 turned out to be 510 nM.

Take `Cc1ccc(NC(=O)[C@H](CCO)Oc2ncnc3c2cnn3-c2ccccc2Cl)nc1` [Example 145, (2S)-2-[1-(2-chlorophenyl)pyrazolo[4,5-e]pyrimidin-4-yl]oxy-4-hydroxy-N-(5-methyl-2-pyridyl)butanamide]: the EC50 came to 230 nM.

As for `Cc1ccc(NC(=O)[C@H](COC(C)C)Oc2ncnc3c2cnn3-c2cccnc2C)nc1` [Example 146, (2S)-3-isopropoxy-N-(5-methyl-2-pyridyl)-2-[1-(2-methyl-3-pyridyl)pyrazolo[4,5-e]pyrimidin-4-yl]oxy-propanamide], the concentration for a half-maximal effect (EC50) was 960 nM.

Consider `CCOC[C@H](Oc1ncnc2c1cnn2-c1ncccc1Cl)C(=O)Nc1ccc(C(=O)N(C)C)cn1` [Example 147, 6-[[(2S)-2-[1-(3-chloro-2-pyridyl)pyrazolo[4,5-e]pyrimidin-4-yl]oxy-3-ethoxy-propanoyl]amino]-N,N-dimethyl-pyridine-3-carboxamide], for which the 50% effective concentration (EC50) turned out to be 7800 nM.

In the case of `Cc1ccc(NC(=O)[C@H](COC(C)C)Oc2ncnc3c2cnn3-c2cnccc2C)nc1` [Example 148, (2S)-3-isopropoxy-N-(5-methyl-2-pyridyl)-2-[1-(4-methyl-3-pyridyl)pyrazolo[4,5-e]pyrimidin-4-yl]oxy-propanamide], the EC50 was 930 nM.

Turning to `Cc1cnc(NC(=O)[C@H](COC2CCC2)Oc2ncnc3c2cnn3-c2cccnc2C)cn1` [Example 149, (2S)-3-cyclobutoxy-N-(5-methylpyrazin-2-yl)-2-(1-(2-methylpyridin-3-yl)-1H-pyrazolo[3,4-d]pyrimidin-4-yloxy)propanamide], the 50% effective concentration (EC50) worked out at 660 nM.

In the case of `CCOC[C@H](Oc1ncnc2c1cnn2-c1cccnc1C)C(=O)Nc1ccc(Cl)cn1` [Example 150, (2S)—N-(5-chloropyridin-2-yl)-3-ethoxy-2-(1-(2-methylpyridin-3-yl)-1H-pyrazolo[3,4-d]pyrimidin-4-yloxy)propanamide], the EC50 came to 1000 nM.

On to `COC[C@H](C)OC[C@H](Oc1ncnc2c1cnn2-c1ccccc1Cl)C(=O)Nc1ccc(C)cn1` [Example 152, (2S)-2-(1-(2-chlorophenyl)-1H-pyrazolo[3,4-d]pyrimidin-4-yloxy)-3-((S)-1-methoxypropan-2-yloxy)-N-(5-methylpyridin-2-yl)propanamide], for which the EC50 was 490 nM.

With `COC[C@@H](C)OC[C@H](Oc1ncnc2c1cnn2-c1ccccc1Cl)C(=O)Nc1ccc(C)cn1` [Example 153, (2S)-2-(1-(2-chlorophenyl)-1H-pyrazolo[3,4-d]pyrimidin-4-yloxy)-3-((R)-1-methoxypropan-2-yloxy)-N-(5-methylpyridin-2-yl)propanamide], the EC50 stood at 280 nM.

`COC[C@@H](C)OC[C@H](Oc1ncnc2c1cnn2-c1ncccc1Cl)C(=O)Nc1ccc(C)cn1` [Example 154, (2S)-2-(1-(3-chloropyridin-2-yl)-1H-pyrazolo[3,4-d]pyrimidin-4-yloxy)-3-((R)-1-methoxypropan-2-yloxy)-N-(5-methylpyridin-2-yl)propanamide]: the concentration giving a half-maximal response (EC50) turned out to be 1200 nM.

Take `COC[C@@H](C)OC[C@H](Oc1ncnc2c1cnn2-c1ccccc1Cl)C(=O)Nc1cnc(C)cn1` [Example 155, (2S)-2-(1-(2-chlorophenyl)-1H-pyrazolo[3,4-d]pyrimidin-4-yloxy)-3-((R)-1-methoxypropan-2-yloxy)-N-(5-methylpyrazin-2-yl)propanamide]: the EC50 was 760 nM.

Turning to `Cc1cnc(NC(=O)[C@H](COC2CCC2)Oc2ncnc3c2cnn3-c2ccccc2Cl)cn1` [Example 156, (2S)-2-(1-(2-chlorophenyl)-1H-pyrazolo[3,4-d]pyrimidin-4-yloxy)-3-cyclobutoxy-N-(5-methylpyrazin-2-yl)propanamide], the EC50 was determined as 87 nM.

For the compound `Cc1cnc(NC(=O)[C@H](COC2CCC2)Oc2ncnc3c2cnn3-c2ncccc2Cl)cn1` [Example 157, (2S)-2-(1-(3-chloropyridin-2-yl)-1H-pyrazolo[3,4-d]pyrimidin-4-yloxy)-3-cyclobutoxy-N-(5-methylpyrazin-2-yl)propanamide], the concentration giving a half-maximal response (EC50) turned out to be 140 nM.

Regarding `Cc1ccc(NC(=O)[C@H](COC2CCC2)Oc2ncnc3c2cnn3-c2ncccc2Cl)nc1` [Example 158, (2S)-2-(1-(3-chloropyridin-2-yl)-1H-pyrazolo[3,4-d]pyrimidin-4-yloxy)-3-cyclobutoxy-N-(5-methylpyridin-2-yl)propanamide], the EC50 is 150 nM.

On to `CC(=O)OCC[C@H](Oc1ncnc2c1cnn2-c1ncccc1Cl)C(=O)Nc1ccc(C)cn1` [Example 159, [(3S)-3-[1-(3-chloropyridin-2-yl)pyrazolo[4,5-e]pyrimidin-4-yl]oxy-4-[(5-methylpyridin-2-yl)amino]-4-oxobutyl]acetate], for which the concentration for a half-maximal effect (EC50) amounted to 850 nM.

`Cc1ccc(NC(=O)[C@H](COC(C)C)Oc2ncnc3c2cnn3-c2ccccc2C(F)(F)F)nc1` [Example 160, (2S)-3-isopropoxy-N-(5-methylpyridin-2-yl)-2-(1-(2-(trifluoromethyl)phenyl)-1H-pyrazolo[3,4-d]pyrimidin-4-yloxy)propanamide]: the concentration for a half-maximal effect (EC50) is 280 nM.

As to `Cc1ccc(NC(=O)[C@H](CCS(C)(=O)=O)Oc2ncnc3c2cnn3-c2ccccc2Cl)nc1` [Example 161, -(2S)-2-(1-(2-chlorophenyl)-1H-pyrazolo[3,4-d]pyrimidin-4-yloxy)-N-(5-methylpyridin-2-yl)-4-(methylsulfonyl)butanamide], the half-maximal effective concentration (EC50) turned out to be 610 nM.

Take `N#Cc1ccc(NC(=O)[C@H](COCCO)Oc2ncnc3c2cnn3-c2ncccc2Cl)nc1` [Example 162, (2S)-2-(1-(3-chloropyridin-2-yl)-1H-pyrazolo[3,4-d]pyrimidin-4-yloxy)-N-(5-cyanopyridin-2-yl)-3-(2-hydroxyethoxy)propanamide]: the EC50 was found to be 1500 nM.

Consider `O=C(Nc1ccc(Cl)cn1)[C@H](COCCO)Oc1ncnc2c1cnn2-c1ncccc1Cl` [Example 163, (2S)—N-(5-chloropyridin-2-yl)-2-(1-(3-chloropyridin-2-yl)-1H-pyrazolo[3,4-d]pyrimidin-4-yloxy)-3-(2-hydroxyethoxy)propanamide], for which the EC50 came to 580 nM.

Turning to `Cc1ccc(NC(=O)[C@H](CCNS(C)(=O)=O)Oc2ncnc3c2cnn3-c2ccccc2Cl)nc1` [Example 164, (2S)-2-(1-(2-chlorophenyl)-1H-pyrazolo[3,4-d]pyrimidin-4-yloxy)-N-(5-methylpyridin-2-yl)-4-(methylsulfonamido)butanamide], the EC50 was 930 nM.

Consider `O=C(Nc1ccc(Cl)cn1)[C@H](CN1CC(O)C1)Oc1ncnc2c1cnn2-c1ncccc1Cl` [Example 165, (2S)—N-(5-chloropyridin-2-yl)-2-[1-(3-chloropyridin-2-yl)pyrazolo[4,5-e]pyrimidin-4-yl]oxy-3-(3-hydroxyazetidin-1-yl)propanamide], for which the EC50 worked out at 370 nM.

Regarding `Cc1c(Cl)cccc1-n1ncc2c(O[C@@H](COCCO)C(=O)Nc3ccc(C#N)cn3)ncnc21` [Example 166, (2S)-2-[1-(3-chloro-2-methylphenyl)pyrazolo[4,5-e]pyrimidin-4-yl]oxy-N-(5-cyanopyridin-2-yl)-3-(2-hydroxyethoxy)propanamide], the concentration giving a half-maximal response (EC50) is 2900 nM.

`Cc1ccc(NC(=O)[C@H](COCCO)Oc2ncnc3c2cnn3-c2cccc(Cl)c2C)nc1` [Example 167, (2S)-2-[1-(3-chloro-2-methylphenyl)pyrazolo[4,5-e]pyrimidin-4-yl]oxy-3-(2-hydroxyethoxy)-N-(5-methylpyridin-2-yl)propanamide]: the EC50 is 1100 nM.

As for `Cc1c(F)cccc1-n1ncc2c(O[C@@H](COCCO)C(=O)Nc3ccc(C#N)cn3)ncnc21` [Example 168, (2S)—N-(5-cyanopyridin-2-yl)-2-[1-(3-fluoro-2-methylphenyl)pyrazolo[4,5-e]pyrimidin-4-yl]oxy-3-(2-hydroxyethoxy)propanamide], the EC50 was found to be 3900 nM.

On to `Cc1c(F)cccc1-n1ncc2c(O[C@@H](COCCO)C(=O)Nc3ccc(Cl)cn3)ncnc21` [Example 170, (2S)—N-(5-chloropyridin-2-yl)-2-[1-(3-fluoro-2-methylphenyl)pyrazolo[4,5-e]pyrimidin-4-yl]oxy-3-(2-hydroxyethoxy)propanamide], for which the EC50 was determined as 1500 nM.

Turning to `O=C(Nc1ccc(Cl)cn1)[C@H](COCCO)Oc1ncnc2c1cnn2-c1ccccc1Cl` [Example 171, (2S)-2-[1-(2-chlorophenyl)pyrazolo[4,5-e]pyrimidin-4-yl]oxy-N-(5-chloropyridin-2-yl)-3-(2-hydroxyethoxy)propanamide], the concentration giving a half-maximal response (EC50) stood at 330 nM.

These data come from patent US8143263B2, “Therapeutic agents” (Astrazeneca AB, priority 2008, dated 2012).
